In ChEMBL document CHEMBL1154257, “Prediction of telomerase inhibitory activity for acridinic derivatives based on chemical structure” (Eur J Med Chem, 2009):

Biological target: Telomerase reverse transcriptase (Homo sapiens, UniProt O14746)
Assay: Inhibition of telomerase in human A2780 cells by TRAP assay
Assay type: cell-based

Chain of Telomerase reverse transcriptase (O14746 whole entry): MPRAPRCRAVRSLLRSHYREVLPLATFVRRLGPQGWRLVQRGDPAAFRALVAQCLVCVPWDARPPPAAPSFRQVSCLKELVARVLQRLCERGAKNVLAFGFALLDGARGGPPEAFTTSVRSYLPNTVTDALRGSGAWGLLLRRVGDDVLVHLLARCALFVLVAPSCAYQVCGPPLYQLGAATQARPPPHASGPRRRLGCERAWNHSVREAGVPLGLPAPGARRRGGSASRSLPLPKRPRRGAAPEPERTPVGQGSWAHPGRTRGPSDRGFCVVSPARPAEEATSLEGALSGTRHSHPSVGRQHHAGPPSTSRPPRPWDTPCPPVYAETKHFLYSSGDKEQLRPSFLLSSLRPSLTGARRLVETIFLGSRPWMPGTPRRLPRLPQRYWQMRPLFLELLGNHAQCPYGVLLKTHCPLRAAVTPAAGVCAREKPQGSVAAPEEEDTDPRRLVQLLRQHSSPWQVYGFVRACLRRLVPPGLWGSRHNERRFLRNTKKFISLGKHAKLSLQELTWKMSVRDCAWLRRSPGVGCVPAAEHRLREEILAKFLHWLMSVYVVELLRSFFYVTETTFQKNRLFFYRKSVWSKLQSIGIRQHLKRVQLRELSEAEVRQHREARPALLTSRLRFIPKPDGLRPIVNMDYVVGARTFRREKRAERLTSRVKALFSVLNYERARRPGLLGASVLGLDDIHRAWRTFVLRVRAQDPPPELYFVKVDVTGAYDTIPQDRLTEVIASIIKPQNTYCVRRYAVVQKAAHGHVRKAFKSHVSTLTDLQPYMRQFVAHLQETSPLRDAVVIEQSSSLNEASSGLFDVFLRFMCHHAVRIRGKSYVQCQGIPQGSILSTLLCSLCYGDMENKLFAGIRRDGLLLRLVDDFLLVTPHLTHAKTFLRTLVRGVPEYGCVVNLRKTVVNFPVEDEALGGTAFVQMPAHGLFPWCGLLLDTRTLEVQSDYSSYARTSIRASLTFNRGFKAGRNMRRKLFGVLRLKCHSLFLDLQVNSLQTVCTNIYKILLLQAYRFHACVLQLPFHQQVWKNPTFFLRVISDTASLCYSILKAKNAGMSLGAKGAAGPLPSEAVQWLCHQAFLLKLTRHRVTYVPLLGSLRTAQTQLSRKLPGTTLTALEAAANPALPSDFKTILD

SMILES | IC50 [nM]
CC1(C)CC2CN(CCC(=O)Nc3ccc4cc5ccc(NC(=O)CCN6CC7CC(C)(C)CC(C)(C7)C6)cc5nc4c3)CC(C)(C2)C1 | > 50000
CN(C)CCNc1c2cc(NC(=O)CCN3CCCC3)ccc2nc2ccc(NC(=O)CCN3CCCC3)cc12 | 570
O=C(CCN1CCCC1)Nc1ccc2nc3ccc(NC(=O)CCN4CCCC4)cc3c(Nc3ccccc3)c2c1 | 1290
CN(C)c1cccc(Nc2c3cc(NC(=O)CCN4CCCC4)ccc3nc3ccc(NC(=O)CCN4CCCC4)cc23)c1 | 600
Nc1cccc(Nc2c3cc(NC(=O)CCN4CCCC4)ccc3nc3ccc(NC(=O)CCN4CCCC4)cc23)c1 | 1090
O=C(CCN1CCCC1)Nc1ccc2c(Nc3ccccc3)c3cc(NC(=O)CCN4CCCC4)ccc3nc2c1 | 1330
COc1ccc(Nc2c3cc(NC(=O)CCN4CCCC4)ccc3nc3ccc(NC(=O)CCN4CCCC4)cc23)cc1 | 460
O=C(CCCCC(=O)N1CCCC1)Nc1ccc(Nc2c3ccc(NC(=O)CCN4CCCC4)cc3nc3cc(NC(=O)CCN4CCCC4)ccc23)cc1 | 318
CC1CCCCN1CCC(=O)Nc1ccc2c(=O)c3ccc(NC(=O)CCN4CCCCC4C)cc3[nH]c2c1 (stereo unspecified) | 2300
CC1CCN(CCC(=O)Nc2ccc3c(=O)c4ccc(NC(=O)CCN5CCC(C)CC5)cc4[nH]c3c2)CC1 | 1700
CCC1CCCCN1CCC(=O)Nc1ccc2c(=O)c3ccc(NC(=O)CCN4CCCCC4CC)cc3[nH]c2c1 (stereo unspecified) | 2300
O=C(CCN1CCCC1)Nc1ccc2c(=O)c3ccc(NC(=O)CCN4CCCC4)cc3[nH]c2c1 | 8100
O=C(CCN1CCCCC1)Nc1ccc2c(O)c3cc(NC(=O)CCN4CCCCC4)ccc3nc2c1 | 400
O=C(CCN1CCCCC1)Nc1ccc2nc3ccc(NC(=O)CCN4CCCCC4)cc3c(O)c2c1 | 1900
CC1CCCCN1CCC(=O)Nc1ccc2nc3ccc(NC(=O)CCN4CCCCC4C)cc3c(O)c2c1 (stereo unspecified) | 1500
CCN(CC)CCC(=O)Nc1ccc2c(O)c3cc(NC(=O)CCN(CC)CC)ccc3nc2c1 | 700
CN(C)CCC(=O)Nc1ccc2nc3ccc(NC(=O)CCN(C)C)cc3c(O)c2c1 | 600
O=C(CCN1CCCC1)Nc1ccc2nc3ccc(NC(=O)CCN4CCCC4)cc3c(O)c2c1 | 5800
CN(C)c1ccc(Nc2c3cc(NC(=O)CCN4CCCC4)ccc3nc3ccc(NC(=O)CCN4CCCC4)cc23)cc1 | 500
COc1cccc(Nc2c3cc(NC(=O)CCN4CCCC4)ccc3nc3ccc(NC(=O)CCN4CCCC4)cc23)c1 | 2730
O=C(CCN1CCCC1)Nc1ccc2nc3ccc(NC(=O)CCN4CCCC4)cc3c(Nc3ccccc3O)c2c1 | 1030
CCN(CC)CCC(=O)Nc1ccc2c(=O)c3ccc(NC(=O)CCN(CC)CC)cc3[nH]c2c1 | 2700
O=C(CCN1CCC(O)CC1)Nc1ccc2nc3ccc(NC(=O)CCN4CCC(O)CC4)cc3c(O)c2c1 | 2300
O=C(CCN1CCC(O)CC1)Nc1ccc2c(O)c3ccc(NC(=O)CCN4CCC(O)CC4)cc3nc2c1 | 1700
C[N+]1(CCC(=O)Nc2ccc3nc4ccc(NC(=O)CC[N+]5(C)CCNCC5)cc4c(O)c3c2)CCNCC1 | 1900
O=C(CC[N+]1([O-])CCCCC1)Nc1ccc2c(=O)c3ccc(NC(=O)CC[N+]4([O-])CCCCC4)cc3[nH]c2c1 | 49000

These reach a lower IC50. Values come first.

IC50 [nM] | SMILES
210 | O=C(CCN1CCCC1)Nc1ccc2c(NC3CCCCC3)c3cc(NC(=O)CCN4CCCC4)ccc3nc2c1
80 | CN(C)CCCNc1c2ccc(NC(=O)CCN3CCCC3)cc2nc2ccc(NC(=O)CCN3CCCC3)cc12
170 | CN(C)c1ccc(Nc2c3ccc(NC(=O)CCN4CCCC4)cc3nc3ccc(NC(=O)CCN4CCCC4)cc23)cc1
270 | CN(C)CCNc1c2ccc(NC(=O)CCN3CCCC3)cc2nc2ccc(NC(=O)CCN3CCCC3)cc12
200 | Nc1ccc(Nc2c3cc(NC(=O)CCN4CCCC4)ccc3nc3ccc(NC(=O)CCN4CCCC4)cc23)cc1
80 | CCN(CC)CCCCCCNC(=O)CCCCC(=O)Nc1ccc(Nc2c3ccc(NC(=O)CCN4CCCC4)cc3nc3cc(NC(=O)CCN4CCCC4)ccc23)cc1
98 | CCN(CC)CCNC(=O)CCCCC(=O)Nc1ccc(Nc2c3ccc(NC(=O)CCN4CCCC4)cc3nc3cc(NC(=O)CCN4CCCC4)ccc23)cc1
200 | O=C(CCN1CCC(O)CC1)Nc1ccc2c(O)c3cc(NC(=O)CCN4CCC(O)CC4)ccc3nc2c1
74 | Nc1ccc(Nc2c3ccc(NC(=O)CCN4CCCC4)cc3nc3cc(NC(=O)CCN4CCCC4)ccc23)cc1
100 | CN(C)c1ccc(Nc2c3ccc(NC(=O)CCN4CCCC4)cc3nc3cc(NC(=O)CCN4CCCC4)ccc23)cc1
210 | Nc1cccc(Nc2c3ccc(NC(=O)CCN4CCCC4)cc3nc3ccc(NC(=O)CCN4CCCC4)cc23)c1
110 | Nc1ccccc1Nc1c2ccc(NC(=O)CCN3CCCC3)cc2nc2ccc(NC(=O)CCN3CCCC3)cc12
170 | Nc1ccccc1Nc1c2cc(NC(=O)CCN3CCCC3)ccc2nc2ccc(NC(=O)CCN3CCCC3)cc12
200 | CC1CCN(CCC(=O)Nc2ccc3c(O)c4cc(NC(=O)CCN5CCC(C)CC5)ccc4nc3c2)CC1
200 | O=C(CCN1CCCCC1CCO)Nc1ccc2c(=O)c3cc(NC(=O)CCN4CCCCC4CCO)ccc3[nH]c2c1 (stereo unspecified)
